Patent US6541468B1, “Indolocarbazole derivatives useful for the treatment of neurodegenerative diseases and cancer” (Bayer Corporation, priority 1998, dated 2003)

| SMILES | melting point [°C] |
| --- | --- |
| O=C1NC(=O)c2c1c1c3ccccc3n3c1c1c2c2ccccc2n1C1CC3CC1=O (centres unmarked) [Example 3, 9,12-Methano-1H-diindolo[1,2,3-fg:3′,2′,1′-kl]pyrrolo[3,4-I][1,6]benzodiazocine-1,3,10 (2H,9H)-trone, 11,12-dihydro] | > 230 |
| O=C1NC(=O)c2c1c1c3ccccc3n3c1c1c2c2ccccc2n1C1CC3[C@@H](O)[C@H]1O [Example 1, 9,12-Methano-1H-diindolo[1,2,3-fg:3′,2′,1′-kl]pyrrolo[3,4-][1,6]benzodiazocine-1,3 (2H)-dione,9,10,11,12-tetrahydro-10,11-dihydroxy-(9α,10α,11α,12α)] | > 200 |
